For assay [1], the system named is HCV type 1b replicon in Huh-7 luc/neo (Huh-Luc) cells. As to the kind of experiment: Replicon assay: inhibition of HCV RNA replication in Huh-Luc cells (luciferase). The assay is classed as cell-based. The note with it: luciferase activity, incubation of three days. The procedure:
The in vitro antiviral activity against HCV of the compounds of formula (I) was tested in a cellular HCV replicon system based on Lohmann et al. (1999) Science 285:110-113, with the further modifications described by Krieger et al. (2001) Journal of Virology 75: 4614-4624, which is further exemplified in the examples section. This model, while not a complete infection model for HCV, is widely accepted as the most robust and efficient model of autonomous HCV RNA replication currently available. […] It will be appreciated that it is important to distinguish between compounds that specifically interfere with HCV functions from those that exert cytotoxic or cytostatic effects in the HCV replicon model, and as a consequence cause a decrease in HCV RNA or linked reporter enzyme concentration. Assays are known in the field for the evaluation of cellular cytotoxicity based for example on the activity of mitochondrial enzymes using fluorogenic redox dyes such as resazurin. Furthermore, cellular counter screens exist for the evaluation of non-selective inhibition of linked reporter gene activity, such as firefly luciferase. Appropriate cell types can be equipped by stable transfection with a luciferase reporter gene whose expression is dependent on a constitutively active gene promoter, and such cells can be used as a counter-screen to eliminate non-selective inhibitors.
The compounds of formula (I) were examined for activity in the inhibition of HCV RNA replication in a cellular assay. […] The cellular assay was based on a bicistronic expression construct, as described by Lohmann et al. (1999) Science vol. 285 pp. 110-113 with modifications described by Krieger et al. (2001) Journal of Virology 75: 4614-4624, in a multi-target screening strategy. In essence, the method was as follows.
The assay utilized the stably transfected cell line Huh-7 luc/neo (hereafter referred to as Huh-Luc). This cell line harbors an RNA encoding a bicistronic expression construct comprising the wild type NS3-NS5B regions of HCV type 1b translated from an Internal Ribosome Entry Site (IRES) from encephalomyocarditis virus (EMCV), preceded by a reporter portion (FfL-luciferase), and a selectable marker portion (neo^R, neomycine phosphotransferase). The construct is bordered by 5′ and 3′ NTRs (non-translated regions) from HCV type 1b. Continued culture of the replicon cells in the presence of G418 (neo^R) is dependent on the replication of the HCV RNA. The stably transfected replicon cells that express HCV RNA, which replicates autonomously and to high levels, encoding inter alia luciferase, are used for screening the antiviral compounds.
The replicon cells were plated in 384 well plates in the presence of the test and control compounds which were added in various concentrations. Following an incubation of three days, HCV replication was measured by assaying luciferase activity (using standard luciferase assay substrates and reagents and a Perkin Elmer ViewLux™ ultraHTS microplate imager). Replicon cells in the control cultures have high luciferase expression in the absence of any inhibitor. The inhibitory activity of the compound on luciferase activity was monitored on the Huh-Luc cells, enabling a dose-response curve for each test compound.
(In general: Replicon systems follow genome replication, usually without infectious particles.)

In assay [2] the target is HCV NS3/4A protease (Hepatitis C virus genotype 1a (isolate H77) (HCV), UniProt P27958). Description: Inhibition assay (enzymatic assay) of full-length NS3 protease with NS4A cofactor. The assay is classed as biochemical. The note with it: full-length NS3 protease 1 nM, 25 μM NS4A cofactor, depsipeptide substrate, competitive inhibition model; read-out: Ki (μM) Enzymatic assay. The procedure: [Landro, 1997 #Biochem 36 9340-9348]. […] The solutions were stored at −20° C. between measurements.
[Liu, 1999 Analytical Biochemistry 267 331-335].

Sequence of HCV NS3/4A protease (P27958 1027-1657): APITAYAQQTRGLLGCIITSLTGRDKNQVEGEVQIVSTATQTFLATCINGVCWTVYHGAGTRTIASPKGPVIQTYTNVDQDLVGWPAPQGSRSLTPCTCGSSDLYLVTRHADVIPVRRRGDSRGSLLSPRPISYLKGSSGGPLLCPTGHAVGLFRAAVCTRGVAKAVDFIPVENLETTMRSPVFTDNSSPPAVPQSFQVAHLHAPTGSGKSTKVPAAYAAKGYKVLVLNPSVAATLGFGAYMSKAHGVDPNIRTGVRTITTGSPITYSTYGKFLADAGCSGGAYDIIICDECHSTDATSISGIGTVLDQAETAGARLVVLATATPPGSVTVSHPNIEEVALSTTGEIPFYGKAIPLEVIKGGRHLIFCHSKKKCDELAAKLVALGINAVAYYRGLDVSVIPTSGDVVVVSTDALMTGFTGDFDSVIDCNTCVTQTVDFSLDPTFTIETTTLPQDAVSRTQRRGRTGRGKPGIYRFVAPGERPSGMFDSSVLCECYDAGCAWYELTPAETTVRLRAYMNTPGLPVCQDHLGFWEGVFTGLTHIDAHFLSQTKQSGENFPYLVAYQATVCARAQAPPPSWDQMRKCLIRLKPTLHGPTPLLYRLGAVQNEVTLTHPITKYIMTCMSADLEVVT

Consider `COc1ccc2c(O[C@@H]3C[C@H]4C(=O)N[C@]5(C(=O)NS(=O)(=O)C6CC6)C[C@H]5/C=C\CCCCCNC(=O)N4C3)cc(-c3nc(C(C)C)cs3)nc2c1C` (stereo in doubt) [Compound 91, N-[[18-[2-[4-(isopropyl)thiazol-2-yl]-7-methoxy-8-methylquinolin-4-yloxy]-2,15-dioxo-3,14,16-triazatricyclo[14.3.0.0^4,6]nonadec-7-en-4-yl]carbonyl]-(cyclopropyl)sulfonamide], for which the EC50 – broadly, the concentration at which the effect is half-maximal – in assay [1] (Hepatitis C virus, Huh-7, 72 h) was determined as 0.00854 µM. Further, the Ki (usually a measure of affinity in units of concentration, obtained from inhibition or displacement) in assay [2] worked out at 0.05 nM.

In assay [1] (Hepatitis C virus, Huh-7, 72 h), `COc1ccc2c(O[C@@H]3C[C@H]4C(=O)N[C@]5(C(=O)O)C[C@H]5/C=C\CCCCN(C)C(=O)[C@@H]4C3)cc(-c3nccs3)nc2c1C` [Compound 29, 17-[7-methoxy-8-methyl-2-(thiazol-2-yl)quinolin-4-yloxy]-13-methyl-2,14-dioxo-3,13-diazatricyclo[13.3.0.0^4,6]octadec-7-ene-4-carboxylic acid] came in with an EC50 of 10 µM.

Consider `COc1ccc2c(O[C@@H]3C[C@H]4C(=O)N[C@]5(C(=O)O)C[C@H]5/C=C\CCCCN(C)C(=O)[C@@H]4C3)cc(-c3nc(C(C)C)cs3)nc2c1C` [Compound 46, 17-[2-(4-isopropylthiazole-2-yl)-7-methoxy-8-methyl-quinolin-4-yloxy]-13-methyl-2,14-dioxo-3,13-diazatricyclo[13.3.0.0^4,6]octadec-7-ene-4-carboxylic acid], for which the half-maximal effective concentration (EC50) in assay [1] (Hepatitis C virus, Huh-7, 72 h) is 0.91 µM. Compared with the last molecule, the EC50 is about 11-fold lower.

In the case of `COc1ccc2c(O[C@@H]3C[C@H]4C(=O)N[C@]5(C(=O)NS(=O)(=O)C6CC6)C[C@H]5/C=C\CCCCN(C)C(=O)[C@@H]4C3)cc(-c3nc(C(C)C)cs3)nc2c1Cl` [Compound 56, N-[17-[8-chloro-2-(4-isopropylthiazole-2-yl)-7-methoxyquinolin-4-yloxy]-13-methyl-2,14-dioxo-3,13-diazatricyclo[13.3.0.0^4,6]-octadec-7-ene-4-carbonyl](cyclopropyl)sulfonamide], the EC50 in assay [1] (Hepatitis C virus, Huh-7, 72 h) worked out at 0.00293 µM. Against the preceding molecule, the EC50 is about 310-fold lower.

As to `COc1ccc2c(O[C@@H]3C[C@H]4C(=O)N[C@]5(C(=O)NS(=O)(=O)C6CC6)C[C@H]5/C=C\CCCCN(C)C(=O)[C@@H]4C3)cc(-n3ccc(C(C)C)n3)nc2c1C` [Compound 66, N-[17-[2-(3-isopropylpyrazol-1-yl)-7-methoxy-8-methyl-quinolin-4-yloxy]-13-methyl-2,14-dioxo-3,13-diazatricyclo[13.3.0.0^4,6]octadec-7-ene-4-carbonyl](cyclopropyl)sulfonamide], the midpoint of the response in assay [1] (Hepatitis C virus, Huh-7, 72 h), the EC50, lay at 0.0036 µM.

Molecule `CCc1c(OC)ccc2c(O[C@@H]3C[C@H]4C(=O)N[C@]5(C(=O)NS(=O)(=O)C6CC6)C[C@H]5/C=C\CCCCN(C)C(=O)[C@@H]4C3)cc(-c3nc(C(C)C)cs3)nc12` [Compound 72] showed an EC50 in assay [1] (Hepatitis C virus, Huh-7, 72 h) of 0.066 µM. Compared with the last molecule, the EC50 is about 18-fold higher.

For the molecule `COc1ccc2c(O[C@@H]3C[C@H]4C(=O)N[C@]5(C(=O)NS(=O)(=O)C6CC6)C[C@H]5/C=C\CCCCN(C)C(=O)[C@@H]4C3)cc(-c3nc(C(C)C)cs3)nc2c1F` [Compound 75], in assay [1] (Hepatitis C virus, Huh-7, 72 h), the EC50 was determined as 0.0575 µM.

In assay [1] (Hepatitis C virus, Huh-7, 72 h), `COc1ccc2c(O[C@@H]3C[C@H]4C(=O)N[C@]5(C(=O)NS(=O)(=O)C6CC6)C[C@H]5/C=C\CCCCN(C)C(=O)[C@@H]4C3)cc(-c3cccc(C)n3)nc2c1C` [Compound 103, Cyclopropanesulfonic acid {17-[2-(6-methyl-2-pyridyl)-7-methoxy-8-methyl-quinolin-4-yloxy]-13-methyl-2,14-dioxo-3,13-diaza-tricyclo[13.3.0.0^4,6]octadec-7-ene-4-carbonyl}-amide] came in with an EC50 of 0.0063 µM. This EC50 lies about 9.1-fold lower than the previous one.

In turn, “N-[17-[8-ethyl-2-(4-isopropylthiazole-2-yl)-7-methoxyquinolin-4-yloxy]-13-methyl-2,14-dioxo-3,13-diazatricyclo[13.3.0.0^4,6]octadec-7-ene-4-carbonyl](cyclo-propyl)sulfonamide [Compound 71]” gave an EC50 in assay [1] of 10 µM.

The values above are taken from patent US8741926B2, “Macrocyclic inhibitors of hepatitis C virus” (Tibotec Pharmaceuticals Ltd., priority 2005, dated 2014).
